What all share (experiment): growth of human tumour cells (NCI), 48 h
In assay [1] the test system is 786-0.
Assay [2] concerns CAKI-1.
Assay [3] relates to CCRF-CEM.
Assay [4] has as its system DMS-114.
Assay [5] deals with EKVX.
The subject of assay [6] is HCT-15.
The test system of assay [7] is HOP-62.
Assay [8] deals with HT-29.
Assay [9] has as its system Hs-578T.
Assay [10] deals with M14.
Assay [11] deals with Malme-3M.
Assay [12] deals with NCI-H522.
In assay [13] the test system is OVCAR-8.
Assay [14] relates to RPMI-8226.
Assay [15] deals with SF-268.
Assay [16] relates to SF-295.
In assay [17] the test system is SF-539.
Assay [18] has as its system SW-620.
Assay [19] concerns T47D.
In assay [20] the test system is TK-10.

The values that follow come from ChEMBL document CHEMBL1201862, “PubChem BioAssay data set” (2004).

Structures are written as SMILES.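 The compound was tested at five concentrations on cells cultured in 96-well plates, with a 48-hour exposure period. GI50: concentration for 50% inhibition of growth.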 Calls of active or inactive are those of the source. Rule as the data show it: active = GI50 up to about 1.1 µM and inactive = higher. Where only a bound is given, the exact number is not on record here.

With `O=C(O)CCCc1ccc(N(CCCl)CCCl)cc1` [CHLORAMBUCIL], the GI50 in assay [1] was 30.9 µM (inactive); in assay [2], 17.3 µM (inactive); in assay [3], 6.31 µM (inactive); in [4], 45.1 µM (inactive); in assay [5], 163 µM (inactive); in [6], 92.7 µM. In addition, the GI50 in [7] was 36.1 µM (inactive); in [8], 130 µM (inactive); in assay [9] it was 189 µM (inactive); in assay [10] it was 62.7 µM (inactive); in assay [11], 70.3 µM (inactive); in assay [12] it was 28.4 µM (inactive). For the same compound, the GI50 in [13] is 83.2 µM (inactive); in [14], 76 µM (inactive); in assay [15] it was 34.9 µM (inactive); in assay [16], 39.2 µM (inactive); in assay [17], 22.9 µM (inactive); in assay [18], 87.9 µM (inactive). The GI50 is 55 µM (inactive) in assay [19] and 171 µM (inactive) in assay [20].

For `CCCCN(CC)CC(C(C)=O)c1c(O)c2ccccc2oc1=O` (stereo not given), the GI50 was > 100 µM (inactive) in assay [1]; > 100 µM (inactive) in [2]; > 100 µM (inactive) in assay [3]; > 100 µM (inactive) in assay [4]; > 100 µM (inactive) in assay [5]; > 100 µM in assay [6]. The GI50 in [7], in assay [8], in assay [10], in assay [11], in [12] and in assay [13] was > 100 µM (inactive) each time. The GI50 in [14], in assay [15], in [16], in assay [17], in assay [18] and in assay [20] was > 100 µM (inactive) each time.

As to `COc1ccccc1/C=N/C12CC3CC(CC(C3)C1)C2`, the GI50 is > 100 µM (inactive) in assay [1]; > 100 µM (inactive) in assay [2]; > 100 µM (inactive) in [3]; > 10 µM (inactive) in assay [4]; > 100 µM (inactive) in assay [5]; 91.8 µM in assay [6]. In addition, the GI50 in [7], in assay [8], in assay [10], in assay [11], in assay [12] and in [13] was > 100 µM (inactive) in each case. The GI50 in [14], in [15], in assay [16], in assay [17], in assay [18] and in assay [20] was > 100 µM (inactive) each time.

Consider `C1=Cc2nc1c(-c1ccncc1)c1ccc([n-]1)c(-c1ccncc1)c1nc(c(-c3ccncc3)c3ccc([n-]3)c2-c2ccncc2)C=C1.[Zn+2]`, for which the GI50 in assay [1] was > 100 µM (inactive); in assay [2], > 100 µM (inactive); in [3], > 100 µM (inactive); in assay [4], > 100 µM (inactive); in assay [5], > 100 µM (inactive); in [6], > 100 µM. The GI50 in [7], in [8], in assay [10], in [11], in assay [12] and in assay [13] was > 100 µM (inactive) throughout. The GI50 in [14], in [15], in assay [16], in [17], in [18] and in assay [20] was > 100 µM (inactive) throughout.

For the compound `C[C@]12CCC3[C@@H](CC[C@@H]4c5nonc5CC[C@]34C)C1CC[C@@H]2O` (stereo not given in full), the GI50 in [1] is 25.3 µM (inactive); in assay [2], 19.8 µM (inactive); in assay [3] it was 22 µM (inactive); in assay [4], 29.2 µM (inactive); in [5], 23.8 µM (inactive); in assay [6], 28.4 µM. Also, the GI50 in [7] is 28.4 µM (inactive); in assay [8], 32.7 µM (inactive); in assay [10] it was 23.6 µM (inactive); in assay [11], 24.5 µM (inactive); in [12] it was 17.8 µM (inactive); in assay [13] it was 35.8 µM (inactive). Moreover, the GI50 in [14] was 14.5 µM (inactive); in assay [15] it was 29.6 µM (inactive); in assay [16], 34.8 µM (inactive); in [17], 17.4 µM (inactive); in assay [18], 29.3 µM (inactive); in [20] it was 29.5 µM (inactive).

As to `CC(=O)O[C@H]1CCC2[C@@H]3CCC4=C(O)c5nocc5C[C@]4(C)C3CC[C@@]21C` (stereo not given in full), the GI50 was > 100 µM (inactive) in [1]; > 100 µM (inactive) in [2]; > 100 µM (inactive) in [3]; > 100 µM (inactive) in assay [4]; > 100 µM (inactive) in assay [5]; > 100 µM in assay [6]. Also, the GI50 in assay [7], in assay [8], in assay [10], in [11], in [12] and in [13] was > 100 µM (inactive) each time. In addition, the GI50 in assay [14], in [15], in assay [16], in assay [17], in assay [18] and in assay [20] was > 100 µM (inactive) throughout.
